Experimental data taken from patent publication US10344019B2 (priority 2010, dated 2019).
Like-named read-outs stand apart in the source and are kept apart here.

Legend:
Format in all cases: cell-based
[1] = tested on: HCV 2a Rluc cells (NS5A chimeric genotype 2a JFH-1 replicon with genotype 2a J6 strain NS5A gene, M31 present); assay: HCV replicon reporter assay, genotype 2a J6 (M31 present); conditions: Hepatitis C virus, read-out: 2a J6
Outline: (§1)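 Replicon cells stably carrying the listed RLuc-encoding dicistronic replicons were seeded and treated with DMSO serial dilutions of compound (10 mM stocks) diluted into culture medium. After 72 h, cells were lysed and Renilla luciferase activity measured. EC50 was derived by non-linear regression.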

[2] = tested on: HCV 2a JFH-1 Rluc cells (dicistronic genotype 2a JFH-1 replicon, RLuc reporter); assay: microbe, parasite or virus in culture; conditions: Hepatitis C virus, read-out: 2a JFH
Outline: as §1

[3] = tested on: HCV 2b Rluc cells (NS5A chimeric genotype 2a JFH-1 replicon with genotype 2b MD2b-1 NS5A gene, M31 present); assay: microbe, parasite or virus in culture; conditions: Hepatitis C virus, read-out: 2b
Outline: as §1

[4] = tested on: HCV 1a RLuc cells (dicistronic genotype 1a H77 replicon, RLuc reporter); assay: microbe, parasite or virus in culture; conditions: Hepatitis C virus, read-out: 1a
Outline: as §1

[5] = tested on: HCV 4a Rluc cells (NS5A chimeric genotype 1b Con1 replicon with genotype 4a NS5A gene); assay: microbe, parasite or virus in culture; conditions: Hepatitis C virus, read-out: 4a
Outline: as §1

[6] = tested on: HCV 3a RLuc cells (NS5A chimeric genotype 1b Con1 replicon with consensus genotype 3a NS5A gene); assay: microbe, parasite or virus in culture; conditions: Hepatitis C virus
Outline: as §1

[7] = tested on: HCV 1b RLuc cells (dicistronic genotype 1b Con1 replicon, RLuc reporter); assay: microbe, parasite or virus in culture; conditions: Hepatitis C virus, read-out: 1b (nM)
Outline: as §1

[8] = tested on: Q30R in genotype 1a NS5A, 1a Rluc replicon transfected into Huh-7 cured-51 cells; assay: HCV replicon assay, resistance mutant 1a Q30R; conditions: Hepatitis C virus, Huh-7, read-out: 1a Q30R
Outline: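 Q30R introduced into genotype 1a H77 RLuc replicon by site-directed mutagenesis; replicon RNA transfected into Huh-7 cured-51 cells.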

[9] = genotype 2a JFH-1 RLuc replicon
[10] = read-out: 3a, genotype 3a NS5A chimeric replicon
[11] = read-out: 3a, genotype 3a replicon

Structure (SMILES) | EC50 [1] | EC50 [2, 9] | EC50 [3] | EC50 ([4]; genotype 1a H77 RLuc replicon) | EC50 [5] | EC50 [6, 10] | EC50 [7] | EC50 [8] | EC50 ([2]; genotype 2a JFH-1 replicon) | EC50 ([4]; genotype 1a replicon) | EC50 [6, 11]
COC(=O)N[C@H](C(=O)N1[C@@H](C)CC[C@H]1c1ncc(-c2ccc3c(c2)COc2cc4c(ccc5nc([C@@H]6CC[C@H](C)N6C(=O)[C@@H](NC(=O)OC)C(C)C)[nH]c54)cc2-3)[nH]1)C(C)C [Example 585] | 0.001 to 0.999 nM | 0.001 to 0.999 nM | 0.001 to 0.999 nM | 0.001 to 0.999 nM | 0.001 to 0.99 nM | 0.001 to 0.99 nM | 0.009 nM | 0.001 to 0.999 nM | – | – | –
COC(=O)N[C@H](C(=O)N1[C@H]2CC[C@H](C2)[C@H]1c1nc2ccc3cc(-c4ccc(-c5cnc([C@@H]6CCCN6C(=O)[C@H](NC(=O)OC)c6ccccc6)[nH]5)cc4)ccc3c2[nH]1)C(C)C [Example 424] | 0.001 to 0.999 nM | – | 0.001 to 0.999 nM | – | 0.001 to 0.99 nM | – | 0.028 nM | 1 to 44 nM | 0.001 to 0.999 nM | 0.001 to 0.999 nM | 0.001 to 0.99 nM
COC(=O)N[C@H](C(=O)N1CCC[C@H]1c1nc2ccc3cc4c(cc3c2[nH]1)OCc1cc(-c2cnc([C@@H]3CCCN3C(=O)[C@H](NC(=O)OC)c3ccccc3)[nH]2)ccc1-4)C(C)C [Example 426] | 0.001 to 0.999 nM | – | 0.001 to 0.999 nM | – | 0.001 to 0.99 nM | – | 0.033 nM | 0.001 to 0.999 nM | 0.001 to 0.999 nM | 0.001 to 0.999 nM | 0.001 to 0.99 nM
COC[C@H]1C[C@@H](c2nc3ccc4cc(-c5ccc(-c6cnc([C@@H]7CCCN7C(=O)[C@@H](NC(=O)OC)C(C)C)[nH]6)cc5)ccc4c3[nH]2)N(C(=O)[C@H](NC(=O)C2CC2)c2ccccc2)C1 [Example 475] | 0.001 to 0.999 nM | – | 0.001 to 0.999 nM | – | 0.001 to 0.99 nM | – | 0.019 nM | 0.001 to 0.999 nM | 0.001 to 0.999 nM | 0.001 to 0.999 nM | 0.001 to 0.99 nM
COC[C@H]1C[C@@H](c2nc3ccc4cc(-c5ccc6c(ccc7nc([C@@H]8C[C@H](SC)CN8C(=O)[C@@H](NC(=O)OC)C(C)C)[nH]c76)c5)ccc4c3[nH]2)N(C(=O)[C@H](NC(=O)OC)c2ccccc2)C1 [Example 546] | 0.001 to 0.999 nM | 0.001 to 0.999 nM | 0.001 to 0.999 nM | 0.001 to 0.999 nM | 0.001 to 0.99 nM | 0.001 to 0.99 nM | 0.048 nM | 0.001 to 0.999 nM | – | – | –
COC[C@H]1C[C@@H](c2nc3ccc4cc(-c5ccc(-c6cnc([C@@H]7CCCN7C(=O)[C@@H](NC(=O)OC)C(C)C)[nH]6)cc5OC(F)F)ccc4c3[nH]2)N(C(=O)[C@H](NC(=O)OC)c2ccccc2)C1 [Example 567] | 0.001 to 0.999 nM | 0.001 to 0.999 nM | 0.001 to 0.999 nM | 0.001 to 0.999 nM | 0.001 to 0.99 nM | 0.001 to 0.99 nM | 0.007 nM | 0.001 to 0.999 nM | – | – | –
COC[C@H]1C[C@@H](c2nc3ccc4cc(-c5ccc(-c6[nH]c([C@@H]7CCCN7C(=O)[C@H](NC(=O)C7CC7)c7ccccc7)nc6C)cc5)ccc4c3[nH]2)N(C(=O)[C@@H](NC(=O)OC)C(C)C)C1 [Example 525] | 0.001 to 0.999 nM | 0.001 to 0.999 nM | 0.001 to 0.999 nM | 0.001 to 0.999 nM | 0.001 to 0.99 nM | 0.001 to 0.99 nM | 0.038 nM | 0.001 to 0.999 nM | – | – | –
COC[C@H]1C[C@@H](c2nc3ccc4cc(-c5ccc6c(ccc7nc([C@@H]8C[C@H](COC)CN8C(=O)[C@@H](NC(=O)OC)C(C)C)[nH]c76)c5)ccc4c3[nH]2)N(C(=O)[C@@H](NC(=O)OC)C(C)C)C1 [Example 436] | 0.001 to 0.999 nM | – | 0.001 to 0.999 nM | – | 0.001 to 0.99 nM | – | 0.051 nM | 0.001 to 0.999 nM | 0.001 to 0.999 nM | 0.001 to 0.999 nM | 0.001 to 0.99 nM
CCO[C@H]1C[C@@H](c2nc3ccc4cc5c(cc4c3[nH]2)OCc2cc(-c3cnc([C@@H]4CCCN4C(=O)[C@H](NC(=O)OC)c4ccccc4)[nH]3)ccc2-5)N(C(=O)[C@@H](NC(=O)OC)C(C)C)C1 [Example 552] | 0.001 to 0.999 nM | 0.001 to 0.999 nM | 0.001 to 0.999 nM | 0.001 to 0.999 nM | 0.001 to 0.99 nM | 0.001 to 0.99 nM | 0.033 nM | 0.001 to 0.999 nM | – | – | –
COC(=O)N[C@H](C(=O)N1[C@H]2CC[C@H](C2)[C@H]1c1nc2ccc3cc(-c4ccc5c(ccc6nc([C@@H]7CCCN7C(=O)[C@H](NC(=O)OC)c7ccccc7)[nH]c65)c4)ccc3c2[nH]1)C(C)C [Example 430] | 0.001 to 0.999 nM | – | 0.001 to 0.999 nM | – | 0.001 to 0.99 nM | – | 0.036 nM | 1 to 44 nM | 0.001 to 0.999 nM | 0.001 to 0.999 nM | 0.001 to 0.99 nM
COC[C@H]1C[C@@H](c2nc3ccc4cc5c(cc4c3[nH]2)OCc2cc(-c3cnc([C@@H]4CCCN4C(=O)[C@H](NC(=O)OC)c4ccccc4)[nH]3)ccc2-5)N(C(=O)[C@@H](NC(=O)OC)C(C)C)C1 [Example 544] | 0.001 to 0.999 nM | 0.001 to 0.999 nM | 0.001 to 0.999 nM | 0.001 to 0.999 nM | 0.001 to 0.99 nM | 0.001 to 0.99 nM | 0.026 nM | 0.001 to 0.999 nM | – | – | –
COC(=O)N[C@H](C(=O)N1CCC[C@H]1c1nc2ccc3cc(-c4ccc5c(ccc6nc([C@@H]7[C@H]8CC[C@H](C8)N7C(=O)[C@H](NC(=O)OC)c7ccccc7)[nH]c65)c4)ccc3c2[nH]1)C(C)C [Example 325] | 0.001 to 0.999 nM | – | 1 to 44 nM | – | 0.001 to 0.99 nM | – | 0.018 nM | 1 to 44 nM | 0.001 to 0.999 nM | 0.001 to 0.999 nM | 0.001 to 0.99 nM
COC[C@H]1C[C@@H](c2ncc(-c3ccc4c(c3)COc3cc5c(ccc6nc([C@@H]7C[C@H](COC)CN7C(=O)[C@@H](NC(=O)OC)C(C)C)[nH]c65)cc3-4)[nH]2)N(C(=O)[C@@H](NC(=O)OC)C(C)C)C1 [Example 579] | 0.001 to 0.999 nM | 0.001 to 0.999 nM | 0.001 to 0.999 nM | 0.001 to 0.999 nM | 0.001 to 0.99 nM | 0.001 to 0.99 nM | 0.034 nM | 0.001 to 0.999 nM | – | – | –
